Experimental data taken from patent US8653080B2, “Methods for screening and compounds that protect against amyloid diseases” (Salk Institute for Biological Studies, priority 2009, dated 2014).

Legend:
CL660 animals [1] = test: vGFP signal scoring in transgenic C. elegans (CL660) expressing Aβ, liquid culture; assay type: in vivo; conditions: compounds at 100 μM in S-media; 36 hours into adulthood; FIG. 18; control DMSO 0.1%
Protocol: Identification of compounds that inhibit aggregation-mediated proteotoxicity was carried out using transgenic C. elegans strain, which expresses human Aβ1-42 within body wall muscles under the direction of the myo-3 promoter cause by induction at 25 C and inhibition of smg-1 activity. This induction in the absence of an effective inhibitor causes association of a heat shock protein-GFP fusion construct with the Aβ1-42 (a schematic of this model is shown in FIG. 2).
Twenty-four hours after placing the L1-stage worms into the fridge, the plates were removed for fileting. Fifteen to twenty-five worms each were placed into wells of a microtiter plate containing compounds to be tested in an aqueous environment or a corresponding control. Only worms that were moving normally were filleted. The worms were incubated for approximately 36 hours or until L3 stage was reached. Aβ toxicity was then generated by growing the worms at 25 C for 18 hours which effects smg-1 activity. […] Typically the worms settled to the bottom of the well and were counted manually.
(§1) Animals were grown at 15° C. until adulthood. Gravid adults were suspended and bleached; eggs were resuspended in M9 salt solution and allowed to hatch for 24 hours at 15° C. Compounds were added to S-media at 100 μM concentration and then aliquoted to 48-well Costar plates at 400 μL per well. As a control, DMSO was added to S-media at 0.1% concentration. L1 hatched larvae were added to each well at 50-100 animals per 25 μL aliquot. Worms were thus grown in liquid media until reaching the third larval stage (L3) at 15° C. At L3 worms were shifted to 25° C. to begin biogenesis of Aβ protein. Observation began 24 hours later when the animals have reached adulthood (timepoint=0 hrs). Animals were scored as either with or without vGFP signal, regardless of intensity level.

CL660 animals [2] = test: vGFP scoring in CL660 animals fed bacteria expressing RNAi (daf-16, hsf-1) plus compound; assay type: in vivo, C. elegans; conditions: for effect of DAF-16 knockdown on the beneficial effects (vGFP) of the compound: daf-16 RNAi, FIG. 19; for effect of HSF-1 knockdown on vGFP expression with the compound: hsf-1 RNAi, FIG. 20
Protocol: as §1
In order to determine a pathway the compounds are acting upon, experiments were performed with genetics already known to be involved in the handling of Aβ aggregation. The insulin/IGF-1 pathway plays a role in the handling of cellular stress. DAF-2 is the sole insulin/IGF-1 receptor in C. elegans and depletion of DAF-2 results in long-lived, stress resistant worms. The Aβ protein applies a biochemical stress to cellular activity as shown by the hsp-16.2 activity in response to its presence. […] DAF-16 encodes a FOXO transcription factor and is required for the lifepan extension in worms fed daf-2RNAi. HSF-1 is also required for the lifespan extension seen in worms fed daf-2 RNAi.
CL660 animals were fed bacteria expressing RNAi suspended in S-basal solution.

Row | Structure (SMILES) | vGFP in CL660 animals compared to control (CL660 animals [1]) | effect of DAF-16 knockdown on the beneficial effects (vGFP) of the compound (CL660 animals [2]) | effect of HSF-1 knockdown on vGFP expression with the compound (CL660 animals [2])
1 | CCCCN1C(=O)[C@H](COCc2ccccc2)NC(=O)C1C(=O)NCc1ccccc1 (some centres unmarked) [D7] | reduced vGFP | partially suppressed the beneficial effects | no effect on vGFP expression
2 | O=C(NCc1ccccc1)C1C(=O)N[C@@H](COCc2ccccc2)C(=O)N1Cc1cccnc1 (some centres unmarked) [E7] | reduced vGFP |  | 
3 | CCC(CC)N1C(=O)[C@H](COCc2ccccc2)NC(=O)C1C(=O)NCc1ccccc1 (some centres unmarked) [F7] | reduced vGFP | partially suppressed the beneficial effects | no effect on vGFP expression
4 | O=C(NCc1ccccc1)C1C(=O)N[C@@H](COCc2ccccc2)C(=O)N1C1CCCC1 (some centres unmarked) [H7] | reduced vGFP |  | 
